{"source": "ChEMBL document CHEMBL1146245", "about": "“Antitumor agents. 258. Syntheses and evaluation of dietary antioxidant--taxoid conjugates as novel cytotoxic agents” (2007)", "type_in_all_cases": "functional", "key": {"[1]": {"assay": "Cytotoxicity against MDR human KB-VIN cells expressing P-glycoprotein"}, "HCT-8": {"test_system": "HCT-8", "assay": "Cytotoxicity against human HCT8 cells"}, "1A9": {"test_system": "1A9", "assay": "Cytotoxicity against human 1A9 cells by sulforhodamine B assay"}, "A-431": {"test_system": "A-431", "assay": "Cytotoxicity against human A431 cells", "details": "read-out: ED50 (the source's name)"}, "KB": {"test_system": "KB", "assay": "Cytotoxicity against human KB cells by sulforhodamine B assay"}, "A549": {"test_system": "A549", "assay": "Cytotoxicity against human A549 cells"}}, "note": "Active and inactive are the calls of the source. The calls are words filed in the database; no cut-off is given here."}
{"smiles": "CC(=O)O[C@H]1C(=O)[C@@]2(C)[C@H]([C@H](OCc3ccccc3)[C@]3(O)C[C@H](OC(=O)[C@H](OC(=O)CCC(=O)Oc4c(C)c(C)c5c(c4C)OC(C)(CCC[C@@H](C)CCC[C@@H](C)CCCC(C)C)CC5)[C@@H](NCc4ccccc4)c4ccccc4)C(C)=C1C3(C)C)[C@]1(OC(C)=O)CO[C@@H]1C[C@@H]2O", "note": "(stereo partly specified)", "values": [{"measurement": "Activity", "setting": "[1]", "result": "inactive"}, {"measurement": "Activity", "setting": "HCT-8", "result": "inactive"}, {"measurement": "Activity", "setting": "1A9", "result": "inactive"}, {"measurement": "EC50", "setting": "A-431", "result": 0.1, "unit": "µg/mL"}, {"measurement": "Activity", "setting": "KB", "result": "inactive"}, {"measurement": "Activity", "setting": "A549", "result": "inactive"}]}
